From paper PMC11968506, “Toxicokinetics and analytical toxicology of the phenmetrazine-derived new psychoactive substance 3,4-methylenedioxyphenmetrazine studied by means of in vitro systems” (Archives of Toxicology, 2025) come the findings set out here.

Bounds are passed on as bounds.

Data set [1] has as its target CYP3A4 (Homo sapiens, UniProt P08684). Description: CYP inhibition cocktail assay in pHLM, CYP3A4 (testosterone). As to the method: A modified dual-cocktail based method (Dinger et al. [2014b]) was used. Substrate cocktail A consisted of 8.9 µM dextromethorphan (CYP2D6), 86 µM testosterone (CYP3A4), 3.5 µM diclofenac (CYP2C9), and 12 µM phenacetin (CYP1A2). Substrate cocktail B included 30 µM bupropion (CYP2B6), 2 µM amodiaquine (CYP2C8) and 21 µM omeprazole (CYP2C19). Substrate concentrations were near their respective Michaelis–Menten constant (Km) values (Dinger et al. [2014a]) and all concentrations are final. Enzyme inhibition was investigated using a positive control, a test group, a control group, an interference group, and a negative control. In the test group, specific inhibitors were replaced by MDPM (20 µM). Instead of inhibitors, phosphate buffer was used in the control group. Enzymes were replaced with phosphate buffer in the negative control group. The interference group was incubated like the control group, but the reaction was stopped with 20 µM MDPM in acetonitrile, also containing 2.5 µM trimipramine-d3. All groups were incubated with a NADPH-regenerating system, consisting of 5 mM isocitrate, 2 U/mL isocitrate dehydrogenase, 5 mM Mg^2+, and 1.2 mM NADP^+. Further, substrate cocktail A or B, 90 mM phosphate buffer (pH 7.4), and 200 U/mL superoxide dismutase were added to each group. […] All groups were preincubated for 10 min at 37 °C. […] Enzyme inhibition was evaluated by metabolite formation. […]

Data set [2] is described as follows: In vitro half-life by substrate depletion in pHLS9. The format is in vitro ADME. The note with it: human, pooled human liver S9 fraction (pHLS9), pHLS9, 25 µM substrate, sampling 0-180 min, read-out: in vitro half-life (t1/2). As to the method: Incubations with pHLS9 were performed in accordance with previous publications and minor adjustments (Richter et al. [2017]). First, 25 μg/mL alamethicin (UGT reaction mix B), pHLS9 (2 mg microsomal protein/mL), 0.1 mM AcCoA, 2.3 mM acetylcarnitine, 8 U/mL carnitine acetyltransferase, 2.5 mM isocitrate, 0.8 U/mL isocitrate dehydrogenase, 100 U/mL superoxide dismutase, 0.6 mM NADP^+ and 2.5 mM Mg^2+ were preincubated for 10 min at 37 °C. Then, 2.5 mM UDP-glucuronic acid (UGT reaction mix A), 40 µM PAPS, 1.2 mM SAM, 1 mM DTT and 10 mM GSH were added. The reaction was started by adding the respective substrate MDPM, MDMA, or quetiapine (25 µM each). MDMA and quetiapine were incubated as positive controls. Negative control samples without enzymes and blank samples without substrates were incubated to identify not metabolically formed compounds and to confirm the absence of interfering compounds. […] Aliquots (50 µL) were transferred to a new reaction tube after 60 and 360 min. […] Samples were vortexed, stored at − 20 °C for 30 min, and centrifuged for 2 min at 18,407×g.
Incubations to investigate in vitro half-life were performed under the same incubation conditions as described above and done in duplicate. […] A t-test was performed to compare absolute peak areas of the incubation group and the control group at 0 min. […]
In vitro half-life was determined by measuring substrate depletion. […]

Data set [3] concerns the target CYP2C19 (Homo sapiens, UniProt P33261). Description: CYP inhibition cocktail assay in pHLM, CYP2C19 (omeprazole). The note with it: inhibitor 20 µM. As to the method: (§1) A modified dual-cocktail based method (Dinger et al. [2014b]) was used. Substrate cocktail A consisted of 8.9 µM dextromethorphan (CYP2D6), 86 µM testosterone (CYP3A4), 3.5 µM diclofenac (CYP2C9), and 12 µM phenacetin (CYP1A2). Substrate cocktail B included 30 µM bupropion (CYP2B6), 2 µM amodiaquine (CYP2C8) and 21 µM omeprazole (CYP2C19). Substrate concentrations were near their respective Michaelis–Menten constant (Km) values (Dinger et al. [2014a]) and all concentrations are final. Enzyme inhibition was investigated using a positive control, a test group, a control group, an interference group, and a negative control. In the test group, specific inhibitors were replaced by MDPM (20 µM). Instead of inhibitors, phosphate buffer was used in the control group. Enzymes were replaced with phosphate buffer in the negative control group. The interference group was incubated like the control group, but the reaction was stopped with 20 µM MDPM in acetonitrile, also containing 2.5 µM trimipramine-d3. All groups were incubated with a NADPH-regenerating system, consisting of 5 mM isocitrate, 2 U/mL isocitrate dehydrogenase, 5 mM Mg^2+, and 1.2 mM NADP^+. Further, substrate cocktail A or B, 90 mM phosphate buffer (pH 7.4), and 200 U/mL superoxide dismutase were added to each group. […] All groups were preincubated for 10 min at 37 °C. Then, pHLM (0.4 mg microsomal protein/mL) was added to each group except the negative control. Incubations were done for 15 min at 37 °C. Therefore, 50 µL of acetonitrile (− 20 °C) containing 2.5 µM trimipramine-d3 as internal standard was added. Incubations were done in triplicates and organic solvent in the incubation mixture was below 1% (Chauret et al. [1998]). Afterwards the samples were vortexed and centrifuged for 2 min at 18,407×g. 70 µL of the supernatant were transferred to autosampler vials and 10 µL were injected onto the LC-HRMS/MS system. Enzyme inhibition was evaluated by metabolite formation. […] The following settings were used: unpaired; one-tailed; significance level, 0.05; confidence intervals, 99%.

For data set [4], the target named is T1, CYP2C8 (Homo sapiens, UniProt P10632).
T1 sequence (P10632 1-490): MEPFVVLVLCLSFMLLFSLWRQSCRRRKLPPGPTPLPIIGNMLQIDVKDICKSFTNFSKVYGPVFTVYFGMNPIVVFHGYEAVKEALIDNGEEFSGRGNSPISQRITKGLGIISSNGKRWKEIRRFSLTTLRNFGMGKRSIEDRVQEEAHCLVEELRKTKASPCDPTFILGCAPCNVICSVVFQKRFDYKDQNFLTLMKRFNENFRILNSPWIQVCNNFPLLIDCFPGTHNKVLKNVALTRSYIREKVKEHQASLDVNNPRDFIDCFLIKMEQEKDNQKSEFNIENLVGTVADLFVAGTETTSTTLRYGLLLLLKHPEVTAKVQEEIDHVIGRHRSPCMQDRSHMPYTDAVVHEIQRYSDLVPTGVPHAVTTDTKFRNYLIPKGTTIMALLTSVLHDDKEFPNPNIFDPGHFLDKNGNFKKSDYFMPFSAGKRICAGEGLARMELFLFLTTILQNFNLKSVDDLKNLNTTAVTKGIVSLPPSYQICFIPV
The experiment in a line: CYP inhibition cocktail assay in pHLM, CYP2C8 (amodiaquine). The note with it: inhibitor 20 µM. The protocol:
as §1

Chain of CYP3A4 (P08684 whole entry): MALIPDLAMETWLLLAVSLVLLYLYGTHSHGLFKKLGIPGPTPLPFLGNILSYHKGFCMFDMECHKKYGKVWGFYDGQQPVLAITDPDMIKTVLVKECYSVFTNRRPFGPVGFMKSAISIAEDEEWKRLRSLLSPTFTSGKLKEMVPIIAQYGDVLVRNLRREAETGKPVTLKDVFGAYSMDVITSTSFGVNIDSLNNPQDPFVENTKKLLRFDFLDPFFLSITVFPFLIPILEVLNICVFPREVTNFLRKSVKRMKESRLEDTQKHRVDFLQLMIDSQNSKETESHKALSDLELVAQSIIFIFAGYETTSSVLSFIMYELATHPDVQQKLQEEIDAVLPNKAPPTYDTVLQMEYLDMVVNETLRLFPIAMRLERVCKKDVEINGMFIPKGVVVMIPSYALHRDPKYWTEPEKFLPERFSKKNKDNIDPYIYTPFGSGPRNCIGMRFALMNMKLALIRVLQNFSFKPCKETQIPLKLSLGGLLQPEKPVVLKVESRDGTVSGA
Chain of CYP2C19 (P33261 whole entry): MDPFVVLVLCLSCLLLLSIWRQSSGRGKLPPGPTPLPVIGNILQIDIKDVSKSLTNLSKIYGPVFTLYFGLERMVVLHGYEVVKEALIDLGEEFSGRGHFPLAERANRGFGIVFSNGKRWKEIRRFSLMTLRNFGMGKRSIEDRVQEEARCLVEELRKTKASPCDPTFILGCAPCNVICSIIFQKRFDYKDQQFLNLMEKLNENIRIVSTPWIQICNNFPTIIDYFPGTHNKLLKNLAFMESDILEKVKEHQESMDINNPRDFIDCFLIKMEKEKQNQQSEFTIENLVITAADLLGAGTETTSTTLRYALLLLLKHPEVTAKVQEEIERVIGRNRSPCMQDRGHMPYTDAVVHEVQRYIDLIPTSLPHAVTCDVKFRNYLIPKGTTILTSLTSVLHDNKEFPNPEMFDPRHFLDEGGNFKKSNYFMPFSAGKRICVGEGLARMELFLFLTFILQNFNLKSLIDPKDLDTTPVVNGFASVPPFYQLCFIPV

Usually inhibition stands for the percentage by which the read-out fell short of the control. High values mean a response far below the control, low ones a response near the control. On to `CC1NCCOC1c1ccc2c(c1)OCO2` (stereo not shown) [MDPM, 2-(1,3-benzodioxol-5-yl)-3-methylmorpholine], for which the inhibition at 15 min, 20 µM in data set [1] (human, pH 7.4) was 28%. Moreover, the CYP3A4 metabolite formation in data set [1] (inhibitor 20 µM, testosterone 86 µM, pHLM 0.4 mg/mL, 15 min, control without inhibitor = 100%) was 72%. In addition, the half-life at 25 µM in data set [2] was over 3 h. In data set [3] (omeprazole 21 µM, pHLM 0.4 mg/mL, 15 min, control without inhibitor = 100%), the CYP2C19 metabolite formation is 86%. Besides, the “inhibition of CYP2C19” value in data set [3] (omeprazole, pHLM, t-test versus control) is “no significant inhibition”. The CYP2C8 metabolite formation in data set [4] (amodiaquine 2 µM, pHLM 0.4 mg/mL, 15 min, control without inhibitor = 100%) is reported as 105%. In addition, in data set [4] (amodiaquine, pHLM, t-test versus control), the “inhibition of CYP2C8” value is given as “no significant inhibition”.
